Results: patent US8969549B2, “Antioxidant small molecules aimed at targeting metal-based oxidative stress in neurogenerative disorders” (Texas Christian University, priority 2013, dated 2015)

What was measured:
[1] = cited from earlier work
[2] = LA/DHLA; cited from earlier work
[3] = DPPH radical quenching assay; format: biochemical; details: 1250 μM
Description: (§1) Compound 2 (Chart 2) exists largely as the pyridol tautomer as confirmed by NMR. The reactivity of pyridol/pyridone based compounds such as chelidamic acid have shown reactivity with OH radicals in solution to form bis-pyridones and is a different mechanism than pyridine based compounds such as 1 (Chart 2). This reactivity is attributed to the enhanced antioxidant capacity observed. Chelidamic acid is the pyridone congener to the starting material used to produce 1. Therefore similar methodologies to produce 2 in gram scale quantities were employed.
As radicals are one product of miscompartmentalized metal ions, radical scavenging capability of compounds 1-3 (Chart 4) was tested using the DPPH assay. DPPH (2,2-diphenyl-1-picrylhydrazyl), is a dark purple (λmax=540 nm), stable free radical in solution that can be reduced to DPPHH in the presence of molecules with radical scavenging activity. This process results in a color change from dark purple to light yellow and can be followed spectroscopically by the decrease of the band at 540 nm. Applicants have, therefore, utilized this method to measure radical scavenging capability of their own organic molecules. BHT (butylhydroxytoluene) was used as a positive control due to its known antioxidant properties.
DPPH stock solution was prepared by dissolving 25 mg in 100 mL of absolute EtOH. The working radical solution was prepared by dilution with absolute EtOH to an absorbance of 1.3 at 512 nm. Stock solutions of the compounds tested were dissolved in DI H2O and EtOH 95% respectively and serial dilutions were made to get different concentrations. For the analysis 2 mL of the solutions were incubated with 2 mL of DPPH working solutions in the dark for 24 h. as well as 2 mL of DPPH working solution with 2 mL of H2O or EtOH to serve as blank. Analysis of the solutions was performed as follows: 1 mL of the sample solution was diluted with 1 mL of H2O shaken and the absorbance was measured at 515 nm.

[4] = test system: HT-22 cells; experiment: Aβ and Cu^+2 toxicity protection (MTT); format: cell-based, mouse; details: compound 50 to 120 μM, Aβ 15 μM, copper 15 μM
Method: In FIG. 16 one can observe that compound 2 (LC) is capable of protection from ranges of 50 to 120 μM reaching 37% of increase of cell proliferation with respect to the control (Aβ+Cu^+2). It is also shown that Aβ toxicity (15 μM) increases upon addition of copper (15 μM) opening the possibility of explaining the mechanism of action of LC (compound 2) which involves the possible chelation of copper out of the plaques, although the possibility of assessing ROS is always present. The experiment is completed with several controls including just compound 2, (Chart 4) and just copper, for comparison purposes.
The same analysis was performed for compound 3, (Chart 4), keeping the same ranges of concentrations for the compound (50 to 120 μM) as well as amyloid and copper. Restoring of cell proliferation was observed from 3 to 17%. […]
(§2) (3-(4,5-dimethylthiazol-2-yl)-2,5-diphenyltetrazolium bromide) cells were seeded in a 96 well plate with a density of 5000 cells per well (in 100 μL per well). […] Media is discarded again and 100 μL of DMSO are added to each well, rocked for 5 minutes and the absorbance (A510) was measured using a Molecular Devices Kinetic Microplate Reader.

[5] = MTT cytotoxicity assay; format: cell-based; details: mouse, HT-22 hippocampal neuronal cells, HT-22 cells
Method: As these compounds show potential for future in vivo studies, the 3-(4,5-dimethythiazol-2-yl)-2,5-diphenyl tetrazolium bromide (MTT) assay was performed in order to test compounds 2, 3 of Chart 4 for cytotoxicity with HT-22 cells, which is a hippocampal neuronal cell line extracted from mice. This is a colorimetric assay that measures the mitochondrial activity of living cells in which MTT crosses into the mitochondria where it is reduced to media insoluble formazan (dark purple), which is later solubilized in DMSO and measured spectroscopically (λmax=540 nm). Since the reduction of MTT can only occur in living cells with undamaged mitochondria, this is a good assay to measure cell proliferation and cytotoxicity.
For the biological assays mouse hippocampal HT-22 cell line was used, incubated them at 37° C. in a humidified atmosphere 5% CO2, with Dulbecco's Modified Eagle Medium (500 ml) containing penicillin/streptomycin 100× (5 ml), Glutamine (100 mM, 5 ml), charcoal strip fetal bovine serum. […]
as §2

[6] = test system: amyloid aggregates; experiment: TEM imaging of copper-induced amyloid aggregates; format: biochemical; details: incubated 12 hours
Method: FIG. 3 is an illustration of TEM Images showing (a) copper induced aggregation of amyloid and (b) its dissolution by 1.
Transmission electron microscopy (TEM) and Scanning Electron Microscopy (SEM) were utilized to study the morphology of the aggregates with and without chelators, as well. […] Aliquots from the stock used to make grid (a) were then incubated with 1 for 12 hours and then prepared for microscopy. The sizes of the aggregates upon treatment with 1 are an average of 1-2 orders of magnitude smaller and observably more diffuse, as shown in grid (b). SEM images also confirm the ability of the chelates to affect aggregate size as well.

[7] = Cu-ascorbate redox system with coumarin-3-carboxylic acid (CCA); format: biochemical
Description: As increased levels of ROS are associated with AD, Applicant's set out to investigate the antioxidant character of 1 compared to the heterocycles 2 and/or 3. […] Moreover, many of the pathways proposed to produce ROS leading to AD pathology involve metal ions. Applicant's therefore utilized the Cu-ascorbate redox system, Scheme 1, as a model to determine if the ligands could halt copper based redox activity under aerobic conditions:
Faller and co-workers employed this system to investigate the redox chemistry of amyloid systems with Cu. Coumarin-3-carboxylic acid (CCA), which generates fluorescent 7-hydroxy-CCA in the presence of hydroxyl radicals, was used to quantify the reduction of oxygen by copper redox-cycling in the presence of ascorbate.

[8] = test system: Aβ1-40; experiment: Tyr^10 fluorescence of Aβ1-40; format: biochemical
Description: FIG. 2 is a graph showing the addition of ligands 1-4 to aggregated Aβ results in reconstitution of Tyr^10 fluorescence which was decreased due to aggregate formation.
To further determine the capability of 1 to prevent or disrupt metal-ion induced amyloid aggregation, Applicant's studied Tyr fluorescence intensity. Recent reports have also utilized the natural fluorescence of the native Tyr^10 in the Aβ1-40 sequence to study the conformational dynamics of amyloid folding as it relates to AD and/or production of H2O2. As Tyr^10 is located within proximity to the metal binding pocket in Aβ1-40 the fluorescence intensity of the phenolic side chain decreases during the folding process due to environmental changes that occur locally. This work was supported by circular dichroism spectra, which verified that fluorescence intensity decreased as the conformation of amyloid changed to beta-sheets. […] Applicant's hypothesis was that Tyr fluorescence intensity should be restored to control levels upon addition of compounds 1-4 (Chart 1) to a solution of pre-formed metal aggregates, as shown below in FIG. 2. […] Similar results were also obtained for amyloid samples co-incubated with 1-4 prior to metal ion addition.
The macrocyclic compound 2 (Chart 2) is also a chelator capable of preventing metal-induced amyloid formation as well as disaggregation. Metal ions bind to a histidine rich domain in amyloid producing Aβ in the form of insoluble plaques. This process has been extensively studied and described in a number of recent reviews. […] Moreover, amyloid aggregates formed by metal ion co-incubation can be disaggregated by the addition of compounds 1 or 2 (FIG. 12b).

[9] = log K constants with Zn^II; format: binding
Description: (§3) The ligand is the backbone to PCTA, a potential MRI contrast agent explored in recent years and has been repurposed for Applicant's work.

[10] = test system: two separate cell lines; experiment: Preliminary cell-viability screen; format: cell-based
Description: as §1

[11] = test system: FRDA cells; experiment: DCFH-DA ROS assay with BSO; format: cell-based, human; details: 12 hours BSO 1 mM, compound 4 nM
Method: FIG. 6 is a graph showing DCFH-DA fluorescent response in FRDA cells after 12 hours exposure to BSO [1 mM] with 1-4 [4 nM].
FIG. 7 is a graph of DCFH-DA fluorescent response in FRDA cells after 12 hours exposure to BSO [1 mM] showing dose dependence with 1.
FIG. 9 is a graph of DCFH-DA fluorescent response in FRDA cells after 12 hours exposure to BSO [1 mM] showing dose dependence with 1 and 2.
The antioxidant activity of compound 1 compared to compounds 2-3 (Chart 1) was then studied using the cell-permeable fluorophore 2,7′-Dichlorodihydrofluorescin diacetate (DCFH-DA) as an indicator for ROS. DCFH-DA diffuses into cells and is deacetylated by cellular esterases to non-fluorescent 2′,7′-Dichlorodihydrofluorescin (DCFH). This species is subsequently oxidized to the highly fluorescent 2′,7′-Dichlorodihydrofluorescein (DCF) species in the presence of ROS. The fluorescent intensity is directly proportional to the amount of ROS present in cell cytosol. BSO (2-amino-4-(butylsulfonimidoyl)butanoic acid) was used to inhibit the first step of de novo glutathione synthesis, allowing us to observe the elevated intra-cellular [ROS] are thereby observed.
Cellular studies were carried out to evaluate the intra-cellular antioxidant efficacy and toxicity of compound 2 (Chart 2) compared to 1 using the cell-permeable fluorophore 2,7′-dichlorodihydrofluorescin diacetate (DCFH-DA) as an indicator for ROS. DCFH-DA diffuses into cells and is deacetylated by cellular esterases to non-fluorescent 2′,7′-dichlorodihydrofluorescin (DCFH) which is subsequently oxidized to the highly fluorescent 2′,7′-dichlorodihydrofluorescein (DCF) species in the presence of ROS. The fluorescence intensity is directly proportional to the amount of ROS present in cell cytosol.^11 BSO (2-amino-4-(butylsulfonimidoyl)butanoic acid) is a commonly used model for oxidative stress via inhibition of cytosolic glutathione synthesis resulting in elevated intra-cellular [ROS] and an increased fluorescent signal in the presence of DCFH (FIG. 9).

[12] = ABTS radical assay standardized against Trolox; format: biochemical; details: ligand concentration 100 μM
[13] = test system: FRDA cells; experiment: Calcein AM viability assay with BSO; format: cell-based, human; details: Homo sapiens, 48 hour BSO 1 mM, compound 1 nM final, read-out: cell viability compared to untreated control cells
Method: FIG. 5 is a graph showing a Calcien AM viability assay of FRDA cells after 48 hour exposure to BSO [1 mM] with 1-4 [1 nM final].
FIG. 10 is a graph showing Calcein AM viability assay of FRDA cells after 48 hour exposure to BSO [1 mM] followed by addition of 2 [various concentrations].
FRDA cells have higher levels of ROS due to mitochondrial misfunction associated with frataxin expression and therefore serve as a good model for ROS protection. […] Calcein AM, a non-fluorescent, hydrophobic compound that easily permeates intact, live cells, was used as an indicator for cell viability.
This dose response is visualized in the fluorescent cell images shown in FIG. 11 with increased cell survival corresponding to increasing 2 in the nM range.

[14] = test system: Aβ1-40; experiment: Turbidity assay of metal-induced amyloid aggregation; format: biochemical; details: for disaggregation of pre-formed metal-induced Aβ1-40 aggregates (turbidity): copper(II) or zinc(II) aggregates, ligand added afterwards
Description: Metal ions (copper and zinc) bind to a histidine rich domain in amyloid producing Aβ in the form of insoluble plaques. This process has been comprehensively studied and described in a number of recent reviews. The aggregation of amyloid can be followed by simple spectroscopic techniques such as turbidity and tyrosine fluorescence studies. These methods were used to investigate the ability of 1 to dissociate pre-formed amyloid aggregates upon addition of metal ions, as well as prevent amyloid aggregation.
Metal ions bind to a histidine rich domain in amyloid producing Aβ in the form of insoluble plaques. This process has been extensively studied and described in a number of recent reviews.

[15] = log K constants with Cu^II; format: binding
Description: as §3

O=C(O)CCCC[C@@H](S)CCS (racemic) [DHLA, dihydrolipoic acid]
pKa [1]: 4.7 | redox potential [2]: −320 mV

O=C(CCCCC1CCSS1)N1CCNCCNCCNCC1 (racemic) [Compound 2 (Chart 4), (±)-5-(1,2-dithiolan-3-yl)-1-(1,4,7,10-tetraazacyclododecan-1-yl)pentan-1-one]
quenching of the DPPH radical [3]: equivalent amount of radical | increase of cell proliferation with respect to the control (Aβ+Cu^+2) [4]: 37% | EC50 at 48 h [5]: 312 µM

c1cc2nc(c1)CNCCNCCNC2 [1 (Chart 1), pyclen]
decrease of amyloid aggregate size compared to the copper aggregates (TEM) [6]: 1-2 orders of magnitude | OH. generation measured as 7-hydroxy-CCA fluorescence, ligand co-incubated ([7]; CCA 100 uM, ascorbate 300 uM, Cu^II 40 uM): prevented entirely | 7-hydroxy-CCA signal after addition to running Cu-ascorbate system ([7]; added after two minutes co-incubation with CCA): leveling of the 7-hydroxy-CCA signal | reconstitution of Tyr^10 fluorescence of aggregated Aβ1-40 ([8]; ligand added to pre-formed metal aggregates): equally effective | prevention of loss of Tyr^10 fluorescence of Aβ1-40 ([8]; ligand co-incubated prior to metal ion addition, 24 hours): equally effective | log K constants Zn^II [9]: 14 | tolerance in cell-viability screen [10]: large degree of tolerance | increase of ROS over the negative control (media) [11]: 15% | Trolox equivalents (ABTS radical) [12]: 0.4 Trolox equivalents | viability at 0.001 µM [13]: > 85% | disaggregation of pre-formed metal-induced Aβ1-40 aggregates (turbidity) [14]: reversed | disaggregation of pre-formed metal-induced Aβ1-40 aggregates (turbidity) ([14]; listed as 1 (Chart 2)): disaggregated | prevention of metal-induced Aβ1-40 aggregation (turbidity) ([14]; ligand co-incubated with amyloid before copper(II) or zinc(II) addition): prevents formation of aggregations | log K constants Cu^II [15]: 20
